Laboratory results published in patent US12116325B2, “Increased longevity of the nitrogen content of soil through improved liquid delivery formulations of nitrification inhibitors designed for urea and manure based fertilizers” (SOILGENIC TECHNOLOGIES, LLC, priority 2014, dated 2024).

Assay: Degradation study of actives in DMSO at 50° C. by LC
Assay type: physicochemical
Protocol: A degradation study was performed using 2-chloro-6-(trichloromethyl)pyridine/nBPT in DMSO.
A 2-chloro-6-(trichloromethyl)pyridine/NBPT=1/1(w/w) mixture was dissolved in DMSO. LC (liquid chromatography) was performed to analyze the content decrease versus time. All samples were sealed and protected under N2. All samples were stored 50° C.
A C18 column was used, and measured at 255 nm. Retention time: 40 min.
Temperature: 30° C. 15 μL injection. Peak area percentages were calculated to analyze the concentration and are shown in below Table 3.

Q: Which results are given for `Clc1cccc(C(Cl)(Cl)Cl)n1` [2-chloro-6-(trichloromethyl)pyridine]?
A: Content remaining, LC peak area percentage (1 week): 100%; Content remaining, LC peak area percentage (2 week): 99%; Content remaining, LC peak area percentage (3 week): 99.4%; Content remaining, LC peak area percentage (4 week): 98.3%; Content remaining, LC peak area percentage (6 week): 95.3%; Content remaining, LC peak area percentage (7 week): 93.2%; Content remaining, LC peak area percentage (8 week): 92.3%; Content remaining, LC peak area percentage (9 week): 90.8%; Content remaining, LC peak area percentage (10 week): 88%; Content remaining, LC peak area percentage (11 week): 86.7%; Content remaining, LC peak area percentage (12 week): 86.4%; Content remaining, LC peak area percentage (13 week): 85%; Content remaining, LC peak area percentage (14 week): 84.33%; Content remaining, LC peak area percentage (15 week): 83.56%; Content remaining, LC peak area percentage (16 week): 81.45%; Content remaining, LC peak area percentage (17 week): 81%; Content remaining, LC peak area percentage (18 week): 80.09%

Q: For `CCCCNP(N)(N)=S` [n-butylthiophosphoric triamide], which “Content remaining, LC peak area percentage” value (Week 1, 1/1 (w/w) mixture in DMSO, 50° C., sealed under N2) is on record?
A: 100%

Q: And the “Content remaining, LC peak area percentage” value (Week 2, DMSO, 50° C.)?
A: 99.6%

Q: What about the “Content remaining, LC peak area percentage” value (Week 3, DMSO, 50° C.) of the same compound?
A: 98%

Q: And the “Content remaining, LC peak area percentage” value (Week 4, DMSO, 50° C.)?
A: 97.6%

Q: And the “Content remaining, LC peak area percentage” value (Week 6, DMSO, 50° C.)?
A: 96.5%

Q: What about the “Content remaining, LC peak area percentage” value (Week 7, DMSO, 50° C.) of the same compound?
A: 95.3%

Q: What about the “Content remaining, LC peak area percentage” value (Week 8, DMSO, 50° C.) of the same compound?
A: 94.7%

Q: And the “Content remaining, LC peak area percentage” value (Week 9, DMSO, 50° C.)?
A: 93%

Q: And the “Content remaining, LC peak area percentage” value (Week 10, DMSO, 50° C.)?
A: 92.2%

Q: What about the “Content remaining, LC peak area percentage” value (Week 11, DMSO, 50° C.) of the same compound?
A: 92.1%

Q: And the “Content remaining, LC peak area percentage” value (Week 12, DMSO, 50° C.)?
A: 91.7%

Q: And the “Content remaining, LC peak area percentage” value (Week 13, DMSO, 50° C.)?
A: 91%

Q: What about the “Content remaining, LC peak area percentage” value (Week 14, DMSO, 50° C.) of the same compound?
A: 90.88%

Q: And the “Content remaining, LC peak area percentage” value (Week 15, DMSO, 50° C.)?
A: 90.01%

Q: What about the “Content remaining, LC peak area percentage” value (Week 16, DMSO, 50° C.) of the same compound?
A: 99.55%

Q: What about the “Content remaining, LC peak area percentage” value (Week 17, DMSO, 50° C.) of the same compound?
A: 89.06%

Q: What about the “Content remaining, LC peak area percentage” value (Week 18, DMSO, 50° C.) of the same compound?
A: 88.6%
